Experimental findings from PubChem BioAssay (NCI) are described below.

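These data come from cells grown in 96-well plates and exposed to compound for 48 hours at five concentrations. Here, GI50 denotes the concentration required for 50% inhibition of growth. TGI: concentration producing complete growth inhibition.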

Among the test systems are OVCAR-5 ovarian; HOP-92 NSCLC; RPMI-8226 leukemia; SF-539 CNS; UO-31 renal; K-562 leukemia; MOLT-4 leukemia; HCT-116 colon; DU-145 prostate.
Common to all, as to test: growth of human tumour cells (NCI), 48 h

Turning to `CCCC1(CC(=O)O)OCCc2c1[nH]c1ccccc21` (stereo not given), the TGI in the test with OVCAR-5 ovarian, in the test on HOP-92 NSCLC, in the test on RPMI-8226 leukemia, in the test on SF-539 CNS, in the test on UO-31 renal and in the test with K-562 leukemia was greater than 100 µM in each case. Moreover, the TGI with MOLT-4 leukemia was greater than 100 µM.
Consider `COC(=O)C(=O)CC(=O)CCn1[nH]c(=O)c(Cl)c(Cl)c1=O`, for which the TGI in the test with OVCAR-5 ovarian, in the test on HOP-92 NSCLC, in the test on HCT-116 colon, with SF-539 CNS, in the test on UO-31 renal and with K-562 leukemia was greater than 100 µM in each case.
For `COc1cc(NS(=O)(=O)c2ccc(C)cc2)c2nccnc2c1`, the TGI in the test with OVCAR-5 ovarian is greater than 100 µM; with HOP-92 NSCLC, greater than 100 µM; in the test with RPMI-8226 leukemia, greater than 100 µM; in the test with SF-539 CNS it was 83.8 µM; in the test with UO-31 renal it was greater than 100 µM; in the test with K-562 leukemia it was greater than 100 µM. In the test with MOLT-4 leukemia, the TGI was 52.3 µM.
Turning to `N#C/C(=C/c1cccc(Oc2ccccc2)c1)c1ccccc1`, the TGI in the test on OVCAR-5 ovarian, in the test with HOP-92 NSCLC, with HCT-116 colon, in the test with RPMI-8226 leukemia, in the test on SF-539 CNS and in the test on UO-31 renal was greater than 100 µM in each case. In addition, the TGI in the test with K-562 leukemia and in the test on MOLT-4 leukemia was greater than 100 µM each time.
In the case of `CCC[CH2][Sn]([CH2]CCC)([O]C(=O)CN)[O]C(=O)CN`, the GI50 is greater than 100 µM with OVCAR-5 ovarian; 73.2 µM with HOP-92 NSCLC; 71.2 µM with HCT-116 colon; 15.3 µM in the test with RPMI-8226 leukemia; 57 µM in the test with SF-539 CNS; greater than 100 µM in the test on UO-31 renal. For the same compound, the values for the GI50 with K-562 leukemia and in the test on MOLT-4 leukemia were 18.7 µM and 29.1 µM, respectively. For the same compound, the TGI in the test with OVCAR-5 ovarian was greater than 100 µM; with HOP-92 NSCLC, greater than 100 µM; in the test with HCT-116 colon, greater than 100 µM; in the test with RPMI-8226 leukemia, 54.5 µM; in the test on SF-539 CNS, greater than 100 µM; in the test with UO-31 renal, greater than 100 µM. Further, the TGI in the test with K-562 leukemia and with MOLT-4 leukemia was greater than 100 µM each time.
With `C[C@]12CC=CC(=O)[C@@]1(C)CCC(=O)C2`, the TGI in the test on OVCAR-5 ovarian, with HOP-92 NSCLC, in the test on HCT-116 colon, in the test on SF-539 CNS, with UO-31 renal and in the test with K-562 leukemia was greater than 100 µM in each case. Further, in the test with MOLT-4 leukemia, the TGI was greater than 100 µM.
Turning to `Cc1ccc(S(=O)(=O)OC2CC=CC2)cc1`, the TGI in the test with OVCAR-5 ovarian, with HOP-92 NSCLC, with HCT-116 colon, in the test with RPMI-8226 leukemia, in the test on UO-31 renal and in the test on K-562 leukemia was greater than 100 µM throughout. This compound also showed a TGI with MOLT-4 leukemia greater than 100 µM.
With `Cc1ccc(S(=O)(=O)N/N=C2\CCCCC23CCC(=O)NC3)cc1` (stereo not given), the TGI in the test with HCT-116 colon, with RPMI-8226 leukemia, in the test on SF-539 CNS, in the test with UO-31 renal, in the test with K-562 leukemia and in the test with MOLT-4 leukemia was greater than 100 µM in each case.
For the compound `CC(=O)C1C(c2ccccc2)C2(C)OC(=O)C(C#N)C12C` (stereo not given), the TGI in the test with OVCAR-5 ovarian, in the test on HCT-116 colon, in the test on RPMI-8226 leukemia, with SF-539 CNS, in the test with UO-31 renal and with K-562 leukemia was greater than 100 µM each time. Further, in the test on MOLT-4 leukemia, the TGI was greater than 100 µM.
Consider `CCCCCCCCCCCCCP(=O)(O)O`, for which the TGI in the test with OVCAR-5 ovarian, in the test with HOP-92 NSCLC, in the test with HCT-116 colon, in the test with SF-539 CNS and in the test with UO-31 renal was greater than 100 µM each time.
As for `[N-]=[N+]=NCCCn1c2c(c3ccc([N+](=O)[O-])cc3c1=O)C(=O)c1ccccc1-2`, the GI50 with OVCAR-5 ovarian is greater than 100 µM; in the test with HOP-92 NSCLC, 45.1 µM; with DU-145 prostate it was greater than 100 µM; with HCT-116 colon it was 8.17 µM; in the test with RPMI-8226 leukemia it was 6.04 µM; in the test with UO-31 renal, greater than 100 µM. Moreover, the GI50 in the test with K-562 leukemia is 1.05 µM. Further, the TGI in the test on OVCAR-5 ovarian, in the test on HOP-92 NSCLC, in the test with DU-145 prostate, in the test on HCT-116 colon, in the test on RPMI-8226 leukemia and in the test on UO-31 renal was greater than 100 µM each time. Further, the TGI in the test on K-562 leukemia and in the test on MOLT-4 leukemia was greater than 100 µM in each case.
As for `NC1=NN(c2ccccc2)C(=O)C1C(=O)CCC(=O)Nc1cccc(Cl)c1` (stereo not given), the TGI in the test with OVCAR-5 ovarian, in the test on HOP-92 NSCLC, with HCT-116 colon, with SF-539 CNS, with UO-31 renal and in the test on K-562 leukemia was greater than 100 µM in each case.
Consider `COc1ccc2nc3cc(Cl)ccc3c(Sc3ccc([N+](=O)[O-])cc3C)c2c1`, for which the TGI in the test with OVCAR-5 ovarian, with HOP-92 NSCLC, with HCT-116 colon, with SF-539 CNS, with UO-31 renal and with K-562 leukemia was greater than 100 µM in each case. In the test on MOLT-4 leukemia, the TGI was greater than 100 µM.
Regarding `O=C1N/C(=C\[N+](=O)[O-])c2ccccc21`, the TGI with OVCAR-5 ovarian, with HOP-92 NSCLC, with HCT-116 colon, in the test on RPMI-8226 leukemia, with SF-539 CNS and with UO-31 renal was greater than 100 µM each time. Moreover, the TGI in the test on K-562 leukemia and in the test on MOLT-4 leukemia was greater than 100 µM each time.
Regarding `O=C(Nc1cccc(O)c1)C(=O)C1C(=O)NC(=S)NC1=O`, the TGI in the test with HOP-92 NSCLC, in the test on HCT-116 colon, with RPMI-8226 leukemia, in the test with SF-539 CNS, in the test with UO-31 renal and in the test on K-562 leukemia was greater than 100 µM each time. In the test with MOLT-4 leukemia, the TGI was greater than 100 µM.
Turning to `CCC1=CCN(c2cc(C)ccn2)OC1c1ccc(OC)cc1` (stereo not given), the TGI with OVCAR-5 ovarian was greater than 100 µM; in the test with HCT-116 colon, 71.8 µM; with RPMI-8226 leukemia, 62.6 µM; with UO-31 renal it was greater than 100 µM; with K-562 leukemia, greater than 100 µM; with MOLT-4 leukemia it was 82.4 µM.
